Tested on: SW1271 complex spheroids with HUVEC/MSC, growth, % test/control
Assay: Anticancer human tumor SW1271 cell line growth inhibition [AhR];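 also: spheroids exposed to agents for 7 days before readout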
Conditions: for IC50: curve of first compound; for viability, T/C: stronger effect = lower value
In short: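 Agents were dosed in half-log steps down from roughly clinical Cmax, or from 10 microM where Cmax was unknown, alone and with AhR antagonists. Read-out: percent test/control growth of tumor spheroids containing HUVEC and MSC stromal cells.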

[1] = second compound 0.1 µM, first compound 0.0316 µM
[2] = second compound 0.1 µM, first compound 0.1 µM
[3] = second compound 0.1 µM, first compound 0.316 µM
[4] = second compound 0.1 µM, first compound 1 µM
[5] = second compound 0.1 µM, first compound 3.16 µM
[6] = second compound 0.1 µM, first compound 10 µM
[7] = second compound 0.316 µM, first compound 0.0316 µM
[8] = second compound 0.316 µM, first compound 0.1 µM
[9] = second compound 0.316 µM, first compound 0.316 µM
[10] = second compound 0.316 µM, first compound 1 µM
[11] = second compound 0.316 µM, first compound 3.16 µM
[12] = second compound 0.316 µM, first compound 10 µM
[13] = second compound 1 µM, first compound 0.0316 µM
[14] = second compound 1 µM, first compound 0.1 µM
[15] = second compound 1 µM, first compound 0.316 µM
[16] = second compound 1 µM, first compound 1 µM
[17] = second compound 1 µM, first compound 3.16 µM
[18] = second compound 1 µM, first compound 10 µM
[19] = second compound 3.16 µM, first compound 0.0316 µM
[20] = second compound 3.16 µM, first compound 0.1 µM
[21] = second compound 3.16 µM, first compound 0.316 µM
[22] = second compound 3.16 µM, first compound 1 µM
[23] = second compound 3.16 µM, first compound 3.16 µM
[24] = second compound 3.16 µM, first compound 10 µM
[25] = second compound 10 µM, first compound 0.0316 µM
[26] = second compound 10 µM, first compound 0.1 µM
[27] = second compound 10 µM, first compound 0.316 µM
[28] = second compound 10 µM, first compound 1 µM
[29] = second compound 10 µM, first compound 3.16 µM
[30] = second compound 10 µM, first compound 10 µM

Compound	IC50 (second compound 0.1 µM) [nM]	IC50 (second compound 0.316 µM) [nM]	IC50 (second compound 1 µM) [nM]	IC50 (second compound 3.16 µM) [nM]	IC50 (second compound 10 µM) [nM]	viability, T/C [1] [%]	viability, T/C [2] [%]	viability, T/C [3] [%]	viability, T/C [4] [%]	viability, T/C [5] [%]	viability, T/C [6] [%]	viability, T/C [7] [%]	viability, T/C [8] [%]	viability, T/C [9] [%]	viability, T/C [10] [%]	viability, T/C [11] [%]	viability, T/C [12] [%]	viability, T/C [13] [%]	viability, T/C [14] [%]	viability, T/C [15] [%]	further results
Nc1ccccc1NC(=O)c1ccc(CNC(=O)OCc2cccnc2)cc1 + Cc1cncc(-c2nc(NCCc3c[nH]c4ccccc34)c3ncn(C(C)C)c3n2)c1	1890	1740	2490	1190	< 31.6	94.7	110	95.5	69.8	34.3	15.8	109	104	97.4	62.9	35.5	17	121	118	88.9	viability, T/C [16]: 63.1%; viability, T/C [17]: 51.9%; viability, T/C [18]: 17.1%; viability, T/C [19]: 121%; viability, T/C [20]: 107%; viability, T/C [21]: 112%; viability, T/C [22]: 52.8%; viability, T/C [23]: 36%; viability, T/C [24]: 16.7%; viability, T/C [25]: 44.2%; viability, T/C [26]: 46.3%; viability, T/C [27]: 35.3%; viability, T/C [28]: 24%; viability, T/C [29]: 18.3%; viability, T/C [30]: 14.3%
O=C(C=Cc1cccc(S(=O)(=O)Nc2ccccc2)c1)NO + Cc1cncc(-c2nc(NCCc3c[nH]c4ccccc34)c3ncn(C(C)C)c3n2)c1	1880	1390	2090	1460	210	97.2	93.9	83.2	68.3	35.5	16.9	104	102	96.8	61.9	20.2	16.6	97.4	97.8	84.5	viability, T/C [16]: 65.4%; viability, T/C [17]: 41.7%; viability, T/C [18]: 15.9%; viability, T/C [19]: 107%; viability, T/C [20]: 115%; viability, T/C [21]: 97.7%; viability, T/C [22]: 57.5%; viability, T/C [23]: 33.7%; viability, T/C [24]: 16.6%; viability, T/C [25]: 49.9%; viability, T/C [26]: 53.5%; viability, T/C [27]: 53.1%; viability, T/C [28]: 39.8%; viability, T/C [29]: 39.2%; viability, T/C [30]: 25.5%
O=C(c1cc(Cc2n[nH]c(=O)c3ccccc23)ccc1F)N1CCN(C(=O)C2CC2)CC1 + Cc1cncc(-c2nc(NCCc3c[nH]c4ccccc34)c3ncn(C(C)C)c3n2)c1	> 10000	> 10000	> 10000	> 10000	< 31.6	74.1	75.8	83.6	75.6	102	100	84.9	94.2	95.5	83.7	90.2	91.4	84.9	91.2	79.3	viability, T/C [16]: 80.2%; viability, T/C [17]: 81.7%; viability, T/C [18]: 75.8%; viability, T/C [19]: 90.7%; viability, T/C [20]: 78.7%; viability, T/C [21]: 96.6%; viability, T/C [22]: 75.6%; viability, T/C [23]: 62.9%; viability, T/C [24]: 80.1%; viability, T/C [25]: 50.1%; viability, T/C [26]: 46.4%; viability, T/C [27]: 46.4%; viability, T/C [28]: 33.3%; viability, T/C [29]: 44.9%; viability, T/C [30]: 34.7%
